According to US9044452B2, “Use of resiniferatoxin (RTX) for producing an agent for treating joint pains and method for applying said agent” (MESTEX AG, priority 2004, dated 2015):

Assays:
knee joint = test: Injection of resiniferatoxin solution into the intracapsular space of a patient's knee joint; type: in vivo, human
Protocol: Under the optionally simultaneous (image converter, CT, sonography, MRI, etc.) or subsequent (x-ray, CT, MRI, sonography, arthroscopy, etc.) imaging control, the therapist brought an injection needle into the joint space of a knee joint and injected 9 mL of a 500 nmolar solution (approximately 0.003 mg) of resiniferatoxin into the intracapsular space. The patient noted a clear alleviation of their symptoms already 14 hours after the intervention. This alleviation lasted for more than 6 months.
Under the optionally simultaneous (image converter, CT, sonography, MRI, arthroscopy, etc.) or subsequent (x-ray, CT, MRI, sonography, etc.) imaging control, the therapist brought an injection needle into the joint space of a knee joint and injected […] of a 500 nmolar solution (approximately 0.006 mg) of resiniferatoxin into the intracapsular space. The patient noted a clear alleviation of their symptoms already a few days after the intervention. This alleviation lasted for more than 6 months.
The injected solution corresponded to that of Example 1 with the difference that, for the imaging method to be used, 5 mL of a visible contrasting agent (Iopamidol) was added at a concentration of 50 g/100 mL. After the injection, this contrasting agent spread out within the joint capsule and documented the position of the injection needle and the distribution of the RTX within the joint capsule. The injected solution, containing RTX, was drawn off again directly after the injection. It could, however, also be drawn off after a defined, substance-dependent time of action or not be drawn off at all. The patient noted a clear alleviation of their symptoms already 15 hours after the intervention. This alleviation lasted for more than 8 months.
Under the optionally simultaneous (image converter, CT, sonography, MRI, etc.) or subsequent (x-ray, CT, MRI, sonography, arthroscopy, etc.) imaging control, the therapist brought an injection needle into the joint space of a knee joint and injected 9 mL of a 500 nM (approx. 0.003 mg) solution of resiniferatoxin, buffered with a buffer to a pH of 8.5, together physiological salt solution into the intracapsular space. The patient noted a clear alleviation of their symptoms already a few minutes after the intervention. This alleviation lasted for more than 6 months.
Under the optionally simultaneous (image converter, CT, sonography, MRI, etc.) or subsequent (x-ray, CT, MRI, sonography, arthroscopy, etc.) imaging control, the therapist, brought an injection needle into the joint space of a knee joint and injected 9 mL of a 500 nmolar solution (approximately 0.003 mg) of resiniferatoxin, buffered to a pH of 6.5 with a buffer, together with a physiological salt solution into the intracapsular space.
Under the optionally simultaneous (image converter, CT, sonography, MRI, etc.) or subsequent (x-ray, CT, MRI, sonography, arthroscopy, etc.) imaging control, the therapist, brought an injection needle into the joint space of a knee joint and injected 9 mL of a 500 nmolar solution (approximately 0.003 mg) of resiniferatoxin, in a physiological Ringer solution with 10 mmolar Ca2+ into the intracapsular space.

affected joint = test: Continuous infusion of resiniferatoxin solution into the affected joint via infusion catheter; type: in vivo, human; settings: Example 4: 100 nmolar
Protocol: The therapist placed a thin infusion catheter, similar to an epidural catheter, into the affected joint and, with a perfuser, injected a solution of […] of 100 nmolar of resiniferatoxin into the affected joint at a rate of 1-10 mL/h for 12 hours. Optionally, they also placed a drainage catheter with an optionally defined drainage resistance (such as 20 mm Hg), in order to achieve a liquid turnover. With this method, the therapist achieved a uniform infiltration of the painful joint, without large concentration peaks. Moreover, it was possible to define the period of action better.
The patient noted a clear alleviation of their symptoms already 12 hours after the intervention. This alleviation lasted for more than 1 year.

postoperative pain = test: Injection of resiniferatoxin after knee or hip joint prosthesis implantation (postoperative pain); type: in vivo, human
Protocol: After a knee joint prosthesis had been implanted, the therapist injected 50 mL of a solution of 100 nmolar (approximately 0.001 mg) solution of resiniferatoxin into the joint capsule, which had been closed off once again.
After a hip joint prosthesis had been implanted, the therapist injected 50 mL of a solution of 100 nmolar (approximately 0.001 mg) solution of resiniferatoxin into the periprosthetic region without a capsule.

[1] = tested on: painful, septic loosening of a total hip endoprosthesis; test: Injection into (neo)-capsule about the prosthesis in painful, septic loosening of a total hip endoprosthesis; type: in vivo, human
Protocol: A solution of 5 μmolar (approximately 0.03 mg) solution of resiniferatoxin was injected into the (neo)-capsule about the prosthesis of a patient with a painful, septic loosening of a total hip endoprosthesis. […] Optionally, this treatment may be supported with systemically administered antibiotics (such as 450 mg of Rifampicin, 750 mg of ciproflaxacin).

shoulder joint = test: Injection into shoulder joint of patient with painful capsulitis of joints (frozen shoulder); type: in vivo, human; settings: for joint mobility lost due to capsulitis: with physiotherapy
Protocol: The shoulder joint of a patient with painful capsulitis of joints (frozen shoulder) was injected with 9 mL of a 100 nmolar (approximately 0.001 mg) solution of resiniferatoxin in physiological salt solution. Once again, it was possible to check the distribution of the substance by adding the appropriate contrasting agent and employing an imaging procedure. Optionally, a substance with antiphlogistic activity was admixed. […] For this application, only a temporary analgesia (2-3 weeks) is desired. For this reason, the concentration of the neurotoxic substances, if anything, was kept low.
The shoulder joint of a patient with painful capsulitis of joints (frozen shoulder) was injected with 3 mL of a 500 nmolar (approximately 0.001 mg) solution of resiniferatoxin in physiological salt solution.

[2] = tested on: chronically inflamed bursa (Bursa trochenterica); test: Injection into chronically inflamed bursa (Bursa trochenterica); type: in vivo, human
Protocol: The therapist injected 5 mL of a solution of a 500 nmolar (approximately 0.001 mg) solution of resiniferatoxin, buffered to a pH of 8.5 with a buffer, together with physiological salt solution as solvent, into a chronically inflamed bursa (Bursa trochenterica) over the greater trochanter of the hip. Within 60 minutes, the symptoms of the patient disappeared and the patient remained asymptomatic at this place for several years.
The therapist injected 50 mL of a 100 nmolar (approximately 0.001 mg) solution of resiniferatoxin in glycerin or Ringer lactate as solvent. Within 60 minutes, the symptoms of the patient disappeared and the patient remained asymptomatic at this place for several years.

[3] = Local application of RTX without local anesthetic, compared with capsaicin or with combination with local anesthetic; type: in vivo
Source text: Moreover, it is free of inflammation and pain. In particular, this preparation may be used without using ethanol, which otherwise is always necessary for the known intravesical administration. It is a further surprising advantage of the use without local or general anesthesia that, due to the injection, a warm, pleasant sensation sets in, which decisively supports combating pain. In this way, an amelioration of pain is achieved, which surpasses that of a combination with local anesthetics. This may also be explained by the antagonistic effect, which the local anesthetics have for vanilloid receptor agonists since they partially block the desired neurotoxic effect of vanilloids.

[4] = Example 1: 9 mL of 500 nmolar solution, knee joint, intracapsular
[5] = Example 2: 20 mL of 500 nmolar solution, knee joint, intracapsular
[6] = Example 3: solution of Example 1 plus 5 mL Iopamidol 50 g/100 mL, drawn off directly after injection
[7] = Example 8: 9 mL of 500 nM solution buffered to pH 8.5, physiological salt solution, knee joint
[8] = Example 9: 9 mL of 500 nmolar solution buffered to pH 6.5, physiological salt solution, knee joint
[9] = Example 10: 9 mL of 500 nmolar solution in Ringer solution with 10 mmolar Ca2+, knee joint
[10] = 1-10 mL/h for 12 hours via catheter
[11] = Example 7: 5 μmolar solution into (neo)-capsule about the prosthesis
[12] = Example 11: 9 mL of 100 nmolar solution in physiological salt solution, shoulder joint
[13] = Example 12: 3 mL of 500 nmolar solution in physiological salt solution, shoulder joint
[14] = Example 13: 5 mL of 500 nmolar solution buffered to pH 8.5, physiological salt solution, bursa over greater trochanter
[15] = Example 14: 50 mL of 100 nmolar solution in glycerin or Ringer lactate

For `C=C(C)[C@]12C[C@@H](C)[C@@]34O[C@](Cc5ccccc5)(O[C@@H]1[C@@H]3C=C(COC(=O)Cc1ccc(O)c(OC)c1)C[C@]1(O)C(=O)C(C)=C[C@@H]41)O2` [resiniferatoxin], the duration of alleviation (knee joint; [4]) was “more than 6 months”, the “time to clear alleviation of symptoms after the intervention” value (shortened to “time to clear alleviation of symptoms”) (knee joint; [4]) was 14 h and the duration of alleviation (knee joint; [5]) was “more than 6 months”. The “time to clear alleviation of symptoms” value (knee joint; [5]) was “a few days”, the duration of alleviation (knee joint; [6]) was “more than 8 months” and the “time to clear alleviation of symptoms” value (knee joint; [6]) was 15 h. For the same compound, the duration of alleviation (knee joint; [7]) was “more than 6 months”, the “time to clear alleviation of symptoms” value (knee joint; [7]) was “a few minutes” and the duration of alleviation (knee joint; [8]) was “more than 6 months”. For the same compound, the “time to clear alleviation of symptoms” value (knee joint; [8]) was “Within minutes”, the duration of alleviation (knee joint; [9]) was “more than 6 months” and the “time to clear alleviation of symptoms” value (knee joint; [9]) was “Within minutes”. For the same compound, the duration of alleviation (affected joint; [10]) was “more than 1 year”, the “time to clear alleviation of symptoms” value (affected joint; [10]) was 12 h and the “inflamed tissue at subsequent arthroscopies” value (affected joint; 1-10 mL/h for 12 hours, arthroscopies after 1, 2, 7, 14 and 28 days) was “only a very little inflamed tissue was present”. For the same compound, the postoperative pain (postoperative pain; Example 5: 50 mL of 100 nmolar solution into closed joint capsule after knee joint prosthesis) was “possible to minimize postoperative pain”, the postoperative pain (postoperative pain; Example 6: 50 mL of 100 nmolar solution into periprosthetic region without capsule after hip joint prosthesis) was “possible to minimize postoperative pain” and the “bone substance about the prosthesis (radiological)” value ([1]; Example 7: 5 μmolar solution) was “the bone substance had consolidated about the prosthesis”. For the same compound, the “duration of alleviation of pain” value [1, 11] was “more than one year”, the “time to alleviation of pain” value [1, 11] was 6 to 12 h and the “infection about the prosthesis” value ([1]; Example 7: 5 μmolar solution, diffusion of RTX along the shaft and about the socket) was “brought very much under control”. The pain after injection (shoulder joint; [12]) was “alleviated permanently”, the “time to alleviation of pain after the injection” value (shoulder joint; [12]) was “A few minutes” and the “joint mobility lost due to capsulitis” value (shoulder joint; Example 11: 9 mL of 100 nmolar solution) was “able to regain the mobility”. For the same compound, the pain after injection (shoulder joint; [13]) was “abated permanently”, the “time to abatement of pain after the injection” value (shoulder joint; [13]) was “A few minutes” and the “joint mobility lost due to capsulitis” value (shoulder joint; Example 12: 3 mL of 500 nmolar solution) was “regained the mobility lost due to capsulitis”. The “duration patient remained asymptomatic” value [2, 14] was “several years”, the “time to disappearance of symptoms” value [2, 14] was no more than 60 min and the “duration patient remained asymptomatic” value [2, 15] was “several years”. The “time to disappearance of symptoms” value [2, 15] was no more than 60 min, the “local tolerability (burning, inflammation of tissue)” value ([3]; applied locally, without a local anesthetic) was “no burning and also no inflammation of tissue” and the “effectiveness of RTX by itself versus injection together with a local anesthetic” value ([3]; local intraarticular injection at a very low concentration) was “more effective than an injection together with a local anesthetic”.
